Consider nine compounds from publication PMC8231170, “Biphenylalkoxyamine Derivatives–Histamine H3 Receptor Ligands with Butyrylcholinesterase Inhibitory Activity” (Molecules, 2021).

Data set [1] deals with T1, AChE from electric eel (Electrophorus electricus, UniProt O42275).
T1 construct: AChE was obtained from electric eel and BuChE from equine serum; purchased Sigma Aldrich; host or cells: electric eel (natural source)
Description: eeAChE inhibition, Ellman's method. In kind it is biochemical. The settings on record: for inhibition at 10 µM: read-out: eeAChE % Inh. How it is done:
The inhibitory activities of the tested compounds against cholinesterases were evaluated by Ellman’s method. AChE was obtained from electric eel and BuChE from equine serum. Donepezil and rivastigmine were used as reference compounds. […]. Inhibitory activities of the tested compounds against cholinesterases were measured using a spectrophotometric method modified for 96-well microplates as described recently.
[…]. First, all compounds were screened at the concentration of 10 μM. The changes in absorbance were measured at 412 nm, using a microplate reader (EnSpire Multimode; PerkinElmer, Waltham, MA, USA). Then, the percent of inhibition of tested enzymes for each compound was calculated. […] Each concentration was measured in triplicate. All calculations were made using nonlinear regression GraphPad Prism 5 (GraphPad Software, San Diego, CA, USA).

Data set [2] has as its target T2, BuChE from equine serum (Equus caballus, UniProt P81908).
T2 construct: AChE was obtained from electric eel and BuChE from equine serum; purchased Sigma Aldrich; host or cells: equine serum (natural source)
Put plainly: eqBuChE inhibition, Ellman's method. In kind it is biochemical. How it is done:
The inhibitory activities of the tested compounds against cholinesterases were evaluated by Ellman’s method. AChE was obtained from electric eel and BuChE from equine serum. […] Inhibitory activities of the tested compounds against cholinesterases were measured using a spectrophotometric method modified for 96-well microplates as described recently.
First, all compounds were screened at the concentration of 10 μM. […] Then, the percent of inhibition of tested enzymes for each compound was calculated. […] Each concentration was measured in triplicate. All calculations were made using nonlinear regression GraphPad Prism 5 (GraphPad Software, San Diego, CA, USA).
On the technique in general: In Ellman's method for cholinesterases, released thiocholine reacts with DTNB.

For data set [3], the target named is T3, human MAO B (Homo sapiens, UniProt P27338).
T3 construct: purchased Sigma Aldrich M7441
T3 sequence (P27338 1-520): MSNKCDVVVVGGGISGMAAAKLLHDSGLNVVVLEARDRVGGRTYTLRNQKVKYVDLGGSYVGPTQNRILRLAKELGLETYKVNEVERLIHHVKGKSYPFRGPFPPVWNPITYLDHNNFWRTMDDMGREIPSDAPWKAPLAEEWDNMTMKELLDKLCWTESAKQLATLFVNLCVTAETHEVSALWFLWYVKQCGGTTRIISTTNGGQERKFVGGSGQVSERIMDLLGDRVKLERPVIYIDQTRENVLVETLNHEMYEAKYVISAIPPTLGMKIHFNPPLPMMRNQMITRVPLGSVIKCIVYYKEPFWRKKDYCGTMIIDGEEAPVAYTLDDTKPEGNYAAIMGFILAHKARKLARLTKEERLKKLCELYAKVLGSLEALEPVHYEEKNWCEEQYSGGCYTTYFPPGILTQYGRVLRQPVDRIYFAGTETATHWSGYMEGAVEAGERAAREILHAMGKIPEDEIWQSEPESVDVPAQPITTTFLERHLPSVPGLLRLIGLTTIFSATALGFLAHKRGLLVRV
Put plainly: fluorometric Monoamine Oxidase assay. The settings on record: for inhibition at 1 µM: read-out: hMAO B %Inh. (converted). In kind it is biochemical. How it is done:
Inhibition of human MAO B (hMAO B) was evaluated using a fluorometric Monoamine Oxidase assay as we described previously.
Inhibition of hMAO B was evaluated using fluorometric Monoamine Oxidase assay as described by Łażewska et al.. Recombinant MAO B was purchased from Sigma Aldrich (M7441). […] The assay was carried out in 96-well plate. Tested compounds dissolved in DMSO (1 μM) were added to wells that contained 98 µL of enzyme dilution (1 µg/well) in phosphate buffer (50 mM, pH 7.4). […] An enzymatic reaction started following addition of para-tyramine solution (200 μM). […] Each experiment was performed in duplicate.

In data set [4] the target is T4, eqBuChE (Equus caballus, UniProt P81908).
T4 construct: AChE was obtained from electric eel and BuChE from equine serum; purchased Sigma Aldrich; host or cells: equine serum (natural source)
T4 sequence (P81908 whole entry): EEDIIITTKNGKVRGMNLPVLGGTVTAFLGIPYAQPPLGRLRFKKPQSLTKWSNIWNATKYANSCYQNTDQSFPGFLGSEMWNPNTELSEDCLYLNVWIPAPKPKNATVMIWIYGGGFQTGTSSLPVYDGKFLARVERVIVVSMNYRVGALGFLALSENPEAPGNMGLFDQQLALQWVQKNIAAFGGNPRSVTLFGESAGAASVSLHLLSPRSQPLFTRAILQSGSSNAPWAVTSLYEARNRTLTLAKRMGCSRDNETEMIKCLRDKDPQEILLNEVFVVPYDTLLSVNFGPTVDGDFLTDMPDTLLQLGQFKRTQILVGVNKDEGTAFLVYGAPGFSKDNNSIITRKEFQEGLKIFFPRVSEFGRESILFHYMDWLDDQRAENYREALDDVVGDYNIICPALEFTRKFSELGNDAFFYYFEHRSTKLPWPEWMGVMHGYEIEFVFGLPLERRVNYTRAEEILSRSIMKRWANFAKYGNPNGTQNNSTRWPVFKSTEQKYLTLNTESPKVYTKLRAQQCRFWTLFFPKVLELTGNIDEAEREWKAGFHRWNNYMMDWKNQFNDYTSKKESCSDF
Put plainly: kinetic studies of eqBuChE inhibition. In kind it is biochemical. The settings on record: for type of eqBuChE inhibition: Lineweaver–Burk and Cornish–Bowden plots, substrate butyrylthiocholine. Here is the method: Moreover, the dissociation constant (Ki), describing the binding affinity between the inhibitor and the enzyme, was determined.
EqBuChE stock solution was diluted with demineralized water prior to use, giving the final concentration of 0.027 U/mL in the wells. […] For each concentration of the target compound, all six BTC solutions were utilized to perform the assays. Vmax and Km values of the Michaelis−Menten kinetics were calculated by nonlinear regression from substrate−velocity curves. Lineweaver-Burk and Cornish-Bowden plots were calculated using linear regression in GraphPad Prism 5 (GraphPad Software, San Diego, CA, USA). Each experiment was performed in triplicate.

Data set [5] deals with mouse model of scopolamine-induced memory impairments. Put plainly: step-through Passive Avoidance Task. The class given is in vivo. The settings on record: mice. How it is done:
This procedure was created for studying short-term memory as well as long-term memory. The paradigm requires the rodents to behave contrary to their innate preference for dark areas and for avoiding bright ones.
The experiments were carried out on adult male Albino Swiss mice (CD-1, 18–25 g). […] Experimental groups consisted of 6–12 animals, all the animals were used only once and they were killed by cervical dislocation immediately after the assay. Behavioral measures were scored by trained observers, which were blind to experimental conditions. Treatment of laboratory animals in the present study was in full accordance with the respective Polish regulations.
Control animals (negative control) were given an appropriate amount of vehicle (1% aqueous solution of Tween 80; i.p.) 30 min before the test.
The task was performed according to the method described previously. Briefly, the test was conducted in the apparatus with two compartments (LE872, Bioseb, France). The illuminated white compartment (20 cm × 21 cm × 20 cm, 1000 lx) was separated by an automated sliding gate with the smaller dark compartment (7.3 cm × 7.5 cm × 14 cm, 10 lx) equipped with an electric grid floor. For acquisition session, mice were first placed individually in the white compartment and after 30 s the gate to the smaller compartment was opened. Immediately after entering into the dark compartment, the gate was closed and the mouse was punished by an unavoidable electric foot shock (0.8 mA for 2 s). […] Next day (24 h later), the pretested animals were placed again into the bright compartment. […] The latency time to cross through the gate between the compartments was measured.

The target of data set [6] is histamine receptors: H1. The settings on record: cited from earlier work.
In data set [7] the target is histamine receptors: H4. The settings on record: cited from earlier work.
For data set [8] the following is noted: up to 10 µM; cited from earlier work.
For data set [9] the following is noted: previous in vitro studies; cited from earlier work.
Data set [10] addresses human acetylcholinesterase. The settings on record: read-out: hAChE IC50; cited from earlier work.
In data set [11] the target is human butyrylcholineserase. The settings on record: read-out: hBuChE IC50; cited from earlier work.
In data set [12] the target is hH3R. The settings on record: cited from earlier work.
The target of data set [13] is Fatty Acid Amide Hydrolase from rat brain membranes. The settings on record: read-out: rFAAH IC50; cited from earlier work.
The target in data set [14] is T1, AChE from electric eel. The settings on record: cited from earlier work; for IC50: AChE from electric eel, read-out: eeAChE IC50 Mean ± SEM; for eeAChE % Inh.: at 10 μM.
The target in data set [15] is T2, BuChE from equine serum. The settings on record: cited from earlier work.
Data set [16] concerns the target T5, human histamine H3 receptor (Homo sapiens, UniProt Q9Y5N1).
T5 construct: expressed in transfected cells; host or cells: HEK293
The settings on record: read-out: hH3R Ki Mean ± SD [CI 95%]; [3H]Nα-methylhistamine, HEK293 cells stably expressing human H3R; cited from earlier work.

Setting [17] is: read-out: eqBuChE IC50 Mean ± SEM.

“Also recorded” adds a separate entry of the source. Like-named read-outs stand apart in the source and are kept apart here. Marks after values point to notes of the source that are not given here.

T2 sequence (P81908 whole entry): as above
T1 sequence (O42275 24-633): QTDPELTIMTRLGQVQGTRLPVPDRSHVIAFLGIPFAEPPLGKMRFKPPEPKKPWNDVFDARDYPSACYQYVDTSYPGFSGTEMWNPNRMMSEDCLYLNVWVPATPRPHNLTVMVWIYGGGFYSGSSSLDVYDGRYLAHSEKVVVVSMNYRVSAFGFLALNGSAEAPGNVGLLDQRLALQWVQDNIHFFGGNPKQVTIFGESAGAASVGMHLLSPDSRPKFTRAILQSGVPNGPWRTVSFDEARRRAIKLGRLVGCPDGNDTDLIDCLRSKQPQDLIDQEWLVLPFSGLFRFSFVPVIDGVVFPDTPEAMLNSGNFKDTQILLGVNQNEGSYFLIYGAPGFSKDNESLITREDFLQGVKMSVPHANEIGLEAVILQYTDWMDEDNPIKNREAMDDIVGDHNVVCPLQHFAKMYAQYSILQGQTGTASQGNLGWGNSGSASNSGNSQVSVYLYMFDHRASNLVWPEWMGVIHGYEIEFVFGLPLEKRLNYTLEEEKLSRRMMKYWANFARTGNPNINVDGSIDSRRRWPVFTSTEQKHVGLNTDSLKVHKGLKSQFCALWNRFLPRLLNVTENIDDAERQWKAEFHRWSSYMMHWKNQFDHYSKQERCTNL
T5 sequence (Q9Y5N1 whole entry): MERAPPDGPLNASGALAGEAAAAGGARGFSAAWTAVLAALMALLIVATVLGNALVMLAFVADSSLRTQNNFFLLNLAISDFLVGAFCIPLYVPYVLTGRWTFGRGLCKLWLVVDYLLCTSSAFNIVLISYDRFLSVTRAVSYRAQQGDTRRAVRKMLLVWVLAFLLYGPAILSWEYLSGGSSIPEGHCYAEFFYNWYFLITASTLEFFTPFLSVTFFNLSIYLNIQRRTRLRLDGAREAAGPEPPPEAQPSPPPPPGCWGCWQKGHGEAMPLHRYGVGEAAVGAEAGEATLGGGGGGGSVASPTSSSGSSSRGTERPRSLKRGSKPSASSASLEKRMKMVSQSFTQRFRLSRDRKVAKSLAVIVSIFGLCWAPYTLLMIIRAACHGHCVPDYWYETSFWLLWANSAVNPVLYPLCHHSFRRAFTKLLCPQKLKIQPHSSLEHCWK

For the compound `c1ccc(-c2ccc(OCCCCCN3CCCCCC3)cc2)cc1` [Compound 19, 1-(5-([1,1′-biphenyl]-4-yloxy)pentyl)azepane], in data set [1], the inhibition at 10 µM was found to be 44%. In addition, the IC50 was found to be 590 ± 10 nM in data set [2] and 243 ± 73 nM in [3]. In addition, the inhibition at 1 µM in [3] was 54%. In data set [4], the “type of eqBuChE inhibition” value is given as “mixed type of enzyme inhibition; also recorded: mixed mode of enzyme inhibition”. Besides, the “latency time, retention trial” value in data set [5] (1.25 mg/kg i.p. before scopolamine 1 mg/kg) is 93.5 ± 17.4 s; in data set [5] (2.5 mg/kg i.p. before scopolamine 1 mg/kg), 119.1 ± 21.2 s; in [5] (5.0 mg/kg i.p. before scopolamine 1 mg/kg), 129.8 ± 17.8 s. Further, the “activity in retention trial” value in data set [5] (10 mg/kg i.p. before scopolamine 1 mg/kg) is given as “lower activity”. The “effect on scopolamine-induced memory deficits” value in data set [5] (Passive Avoidance Task, listed as 19 (E153)) was “effectively alleviated memory deficits caused by scopolamine; also recorded: reversed memory impairments induced by scopolamine”. The “latency times, acquisition trial” value in data set [5] (i.p.) is on record as “neither scopolamine, nor 19 nor rivastigmine significantly affected latency times”. Moreover, the Ki in data set [6] was 1300 nM; in [7], 21.8 µM. For the same compound, in data set [8], the mutagenic activity result is given as “no mutagenic activity”. In addition, in data set [9], the “blood–brain barrier crossing” value was “crosses the blood–brain barrier (BBB)”.
Take `C#CCN(C)Cc1cc2cc(OCCCN3CCCCC3)ccc2n1C` [contilisant]: the values for the IC50 in [10] and in [11] were 530 nM and 1690 nM, respectively. The Ki in data set [12] is 11 nM.
`O=C(NCCCCCc1ccccc1)Oc1cccc(Cn2cc(COc3ccc4ccc(=O)oc4c3)nn2)c1` [Compound 2]: the IC50 in data set [10] was 922 nM; in data set [11], 43 nM; in data set [13] it was 28 nM.
For `CC1CCN(CCCCCCOc2ccc(-c3ccccc3)cc2)CC1` [Compound 4], in [3], the inhibition at 1 µM is 27%. Moreover, in data set [14], the IC50 is 4.46 ± 0.1 µM and the “eeAChE % Inh.” value is reported as “more than 50%”. For the same compound, the IC50 in [15] (setting [17]) is 740 ± 20 nM.
With `c1ccc(-c2cccc(OCCCCCCN3CCCCCC3)c2)cc1` [Compound 21], the IC50 in [1] (AChE from electric eel, read-out: eeAChE IC50 Mean ± SEM) was 3.86 ± 0.08 µM; in [2] (BuChE from equine serum, read-out: eqBuChE IC50 Mean ± SEM) it was 870 nM. Also, the inhibition at 10 µM in [1] is above 50%. In addition, in data set [3], the inhibition at 1 µM was 43%. Moreover, the Ki in [16] is 19 ± 5.5 nM.
For the compound `O=c1c2cc(Cl)ccc2oc2ccc(OCCCCCN3CCCCCC3)cc12` [Compound E342], the IC50 in [10] is 120 nM; in [11] it was 1600 nM. Besides, the Ki in [12] was 100 nM.
As to `c1ccc(-c2ccc(OCCCCCCN3CCCCCC3)cc2)cc1` [Compound 5], the inhibition at 1 µM in [3] is 45%. The “type of eqBuChE inhibition” value in [4] was “non-competitive type of eqBuChE inhibition”. The Ki in data set [4] (replot of Lineweaver–Burk data, read-out: dissociation constant (Ki) for eqBuChE) was 652 nM. Further, in [14], the half-inhibitory concentration (IC50) was 2.76 ± 0.04 µM and the “eeAChE % Inh.” value is “more than 50%”. The IC50 in data set [15] (setting [17]) was 600 ± 10 nM.
`Cc1[nH]c2ccccc2c1CC(=O)NCCC1CCN(Cc2ccccc2)CC1` [Compound 1]: the IC50 in data set [10] is 7270 nM; in data set [11], 1.09 nM.
On to `CC1CCN(CCCCCOc2ccc(-c3ccccc3)cc2)CC1` [Compound 3], for which the inhibition at 1 µM in data set [3] is 36%. Also, the “eeAChE % Inh.” value in [14] is on record as “(42% ± 1) ^i”. For the same compound, the IC50 in [15] (read-out: eqBuChE IC50) was 851 nM; in [15] (setting [17]) it was 850 ± 20 nM.

For orientation: IC50 means the concentration at which inhibition is half-maximal. For orientation: Ki means the equilibrium dissociation constant of an inhibitor or competing ligand from its target.
